In paper PMC6769917, “Glycan Binding Profiling of Jacalin-Related Lectins from the Pteria Penguin Pearl Shell” (International Journal of Molecular Sciences, 2019):

Target: T1, PPL4 (Pteria penguin, UniProt B6F0T8+B6F0T9)
T1 construct: gene PPL4-a; native, purified from mantle secretory fluid; mature 148 residues per subunit, 16 kDa; disulfide-linked heterodimer 32 kDa (head-to-head, N-terminal bond); N-termini […]; (alpha), […]; (beta)
Experiment: hemagglutination inhibition, rabbit erythrocytes, purified lectin
Type: cell-based
Conditions: 0.15 M NaCl; hemagglutination titer 2^−3; 2% rabbit erythrocytes
From the text: hemagglutination inhibition, rabbit erythrocytes, purified lectin on PPL4

T1 sequence (B6F0T8 entry or part of it): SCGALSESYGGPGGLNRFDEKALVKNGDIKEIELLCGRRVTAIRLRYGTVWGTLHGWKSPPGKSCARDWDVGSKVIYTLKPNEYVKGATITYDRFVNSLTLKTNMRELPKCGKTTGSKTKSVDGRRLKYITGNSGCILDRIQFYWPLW
T1 sequence (B6F0T9 entry or part of it): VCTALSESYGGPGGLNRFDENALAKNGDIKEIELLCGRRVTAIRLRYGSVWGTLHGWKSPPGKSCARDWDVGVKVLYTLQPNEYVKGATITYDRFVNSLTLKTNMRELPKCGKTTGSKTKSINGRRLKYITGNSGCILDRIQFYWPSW

| PPL3 [mM] | PPL4 [mM] | Compound |
| --- | --- | --- |
| 50 |  | OCC1(O)OC[C@@H](O)[C@@H](O)[C@@H]1O (stereo partly drawn) [D-Fructose] |
|  | 100 | OC[C@H]1O[C@H](O[C@H]2C(O)O[C@H](CO)[C@@H](O)[C@@H]2O)[C@H](O)[C@@H](O)[C@@H]1O (some centres unmarked) [Kojibiose] |
|  | 6.25 | CC(=O)N[C@H]1C(O)O[C@H](CO)[C@@H](O)[C@@H]1O (stereo partly drawn) [N-Acetyl-D-glucosamine] |
|  | > 200 | OC[C@H]1O[C@H](OC[C@H]2OC(O)[C@H](O)[C@@H](O)[C@@H]2O)[C@H](O)[C@@H](O)[C@@H]1O (some centres unmarked) [Isomaltose] |
|  | 100 | OC[C@H]1O[C@H](O[C@H]2O[C@H](CO)[C@@H](O)[C@H](O)[C@H]2O)[C@H](O)[C@@H](O)[C@@H]1O [Trehalose] |
